Where only a bound is given, the exact number is not on record here.

In experiment [1] the test system is MEK1 phosphorylation in the A375 human melanoma cell line. In words: cells. The settings on record: A-375, read-out: pMEK IC50.
In experiment [2] the target is RAF kinases (Homo sapiens, UniProt P15056). Briefly: biochemical.
In experiment [3] the target is RAF kinases (Homo sapiens, UniProt P04049). Briefly: biochemical.
Another experiment relates to A375 cells. Briefly: cells. The settings on record: Homo sapiens, A-375, read-out: A375 Viability EC50.
The target in experiment [4] is RAF kinases (Homo sapiens, UniProt P15056, V600E). The settings on record: read-out: BRAF V600E Kd; BRAF V600E.
Chain of RAF kinases (Homo sapiens, UniProt P15056, V600E) (P15056 whole entry V600E): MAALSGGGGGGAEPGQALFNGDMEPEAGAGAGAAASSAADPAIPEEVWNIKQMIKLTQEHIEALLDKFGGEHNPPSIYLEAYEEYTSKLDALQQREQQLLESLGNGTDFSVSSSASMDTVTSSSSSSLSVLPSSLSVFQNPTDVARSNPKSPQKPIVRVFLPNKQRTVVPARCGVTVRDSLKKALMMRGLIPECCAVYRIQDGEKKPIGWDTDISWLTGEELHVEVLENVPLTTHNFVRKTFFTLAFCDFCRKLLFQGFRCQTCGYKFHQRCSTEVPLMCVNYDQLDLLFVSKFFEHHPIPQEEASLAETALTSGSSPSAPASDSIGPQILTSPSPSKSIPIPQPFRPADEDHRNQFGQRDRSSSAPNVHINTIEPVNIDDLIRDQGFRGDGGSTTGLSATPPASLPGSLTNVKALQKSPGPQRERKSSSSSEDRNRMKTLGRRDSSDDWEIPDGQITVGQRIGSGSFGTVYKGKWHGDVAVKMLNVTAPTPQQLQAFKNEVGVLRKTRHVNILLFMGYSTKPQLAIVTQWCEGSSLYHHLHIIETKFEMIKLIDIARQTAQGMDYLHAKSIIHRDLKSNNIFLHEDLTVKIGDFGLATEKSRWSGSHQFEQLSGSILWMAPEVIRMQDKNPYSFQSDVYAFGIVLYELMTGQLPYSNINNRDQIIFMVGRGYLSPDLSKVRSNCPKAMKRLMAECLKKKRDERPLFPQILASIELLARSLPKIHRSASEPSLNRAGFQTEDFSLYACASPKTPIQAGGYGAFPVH

Chain of RAF kinases (Homo sapiens, UniProt P15056) (P15056 whole entry): as the sequence (P15056 whole entry V600E) above, with E600V counted along it
Chain of RAF kinases (Homo sapiens, UniProt P04049) (P04049 whole entry): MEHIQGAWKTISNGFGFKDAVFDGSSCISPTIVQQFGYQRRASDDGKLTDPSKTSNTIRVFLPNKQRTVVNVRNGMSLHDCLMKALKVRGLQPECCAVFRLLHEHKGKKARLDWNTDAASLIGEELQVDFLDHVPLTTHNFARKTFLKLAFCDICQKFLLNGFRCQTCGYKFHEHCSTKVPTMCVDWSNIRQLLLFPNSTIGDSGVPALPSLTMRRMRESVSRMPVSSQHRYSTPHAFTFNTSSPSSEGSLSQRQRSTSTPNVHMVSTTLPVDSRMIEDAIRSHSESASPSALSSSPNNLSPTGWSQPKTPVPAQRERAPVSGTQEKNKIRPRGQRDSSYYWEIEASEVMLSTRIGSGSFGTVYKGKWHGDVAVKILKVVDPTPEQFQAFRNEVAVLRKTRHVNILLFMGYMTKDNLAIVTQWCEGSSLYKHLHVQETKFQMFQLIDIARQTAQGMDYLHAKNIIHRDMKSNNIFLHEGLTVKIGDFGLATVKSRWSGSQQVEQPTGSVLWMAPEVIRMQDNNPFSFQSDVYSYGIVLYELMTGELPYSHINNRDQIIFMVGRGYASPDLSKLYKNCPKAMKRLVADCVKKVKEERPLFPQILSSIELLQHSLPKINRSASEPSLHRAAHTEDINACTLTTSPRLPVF

`COc1cc2c(Sc3cccc(NC(=O)Nc4cc(C(C)(C)C)on4)c3)ncnc2cc1OCCN1CCN(S(C)(=O)=O)CC1` [Ex 81, 1-(5-tert-butylisoxazol-3-yl)-3-(3-(6-methoxy-7-(2-(4-(methylsulfonyl)piperazin-1-yl)ethoxy)quinazolin-4-ylthio)phenyl)urea]: the IC50 (in general, the concentration that inhibits the measured activity by half) in experiment [1] is under 250 nM. Moreover, the Kd at RAF kinases [2] and at RAF kinases [3] was 500 to 1000 nM throughout. Moreover, in the experiment with A375 cells, the EC50 (usually the midpoint of the concentration-response curve) is 250 to 500 nM.

Consider `COc1cc2c(Sc3cccc(NC(=O)Nc4cc(C(C)(C)C)on4)c3)ncnc2cc1OCCN1CCN(C)CC1` [Ex 83, 1-(5-tert-butylisoxazol-3-yl)-3-(3-(6-methoxy-7-(2-(4-methylpiperazin-1-yl)ethoxy)quinazolin-4-ylthio)phenyl)urea], for which the IC50 in experiment [1] was under 250 nM. The Kd at RAF kinases [2] and at RAF kinases [3] was 250 to 500 nM in each case. Further, in the experiment on A375 cells, the EC50 was over 1000 nM.

For the compound `CC(C)(C)c1cc(NC(=O)Nc2cccc(Sc3ncnc4ccc(OCCCN5CCS(=O)(=O)CC5)cc34)c2)no1` [Ex 90, 1-(5-tert-butyl-isoxazol-3-yl)-3-(3-{6-[3-(1,1-dioxo-thiomorpholin-4-yl)-propoxy]-quinazolin-4-ylsulfanyl}-phenyl)-urea], the IC50 in experiment [1] was under 250 nM. The Kd (in general, the free concentration of one partner at which half of the binding sites on the other are occupied at equilibrium, for simple one-to-one binding) at RAF kinases [2] is 500 to 1000 nM; at RAF kinases [3] it was 250 to 500 nM. In addition, the EC50 in the experiment on A375 cells is over 1000 nM.

Consider `COc1cc2ncnc(Oc3cccc(NC(=O)Nc4cc(C(C)(C)C)on4)c3)c2cc1OCCN1CCS(=O)(=O)CC1` [Ex 91, 1-(5-tert-butyl-isoxazol-3-yl)-3-(3-{6-[2-(1,1-dioxo-thiomorpholin-4-yl)-ethoxy]-7-methoxy-quinazolin-4-yloxy}-phenyl)-urea], for which, in experiment [1], the IC50 is under 250 nM. Besides, the Kd at RAF kinases [2] and at RAF kinases [3] was 250 to 500 nM in each case. Moreover, the EC50 in the experiment on A375 cells is under 250 nM.

Regarding `CC(C)(C)c1cc(NC(=O)Nc2cccc(Oc3ncnc4ccc(-c5ccc(CNCCS(C)(=O)=O)o5)cc34)c2)no1` [Ex 92, 1-(5-tert-butylisoxazol-3-yl)-3-{3-[6-(5-{[2-(methylsulfonyl)ethylamino]methyl}furan-2-yl)quinazolin-4-yloxy]phenyl}urea], the IC50 in experiment [1] was under 250 nM. Moreover, the Kd lay in the range of 500 to 1000 nM at RAF kinases [2] and 250 to 500 nM on RAF kinases [3]. Also, in the experiment with A375 cells, the EC50 is under 250 nM.

Turning to `COc1cc2c(Oc3cccc(NC(=O)Nc4cc(C(C)(C)C)on4)c3)ncnc2cc1O` [Ex 95, 1-(5-tert-butylisoxazol-3-yl)-3-(3-(7-hydroxy-6-methoxyquinazolin-4-yloxy)phenyl)urea], in experiment [1], the IC50 was under 250 nM. Also, the Kd at RAF kinases [2] was in the range of 500 to 1000 nM; on RAF kinases [3], 250 to 500 nM. Also, the EC50 in the experiment on A375 cells is under 250 nM.

Turning to `COc1cc2c(Oc3cccc(NC(=O)Nc4cc(C(C)(C)C)on4)c3)ncnc2cc1O[C@H]1CCN(C)C1` [Ex 97, (S)-1-(5-tert-butylisoxazol-3-yl)-3-(3-(6-methoxy-7-(1-methylpyrrolidin-3-yloxy)quinazolin-4-yloxy)phenyl)urea mono acetate], in experiment [1], the IC50 was in the range of 250 to 500 nM. Further, the Kd is 250 to 500 nM on RAF kinases [2] and 500 to 1000 nM on RAF kinases [3]. Moreover, the EC50 in the experiment with A375 cells is over 1000 nM.

On to `COc1cc2c(Oc3cccc(NC(=O)Nc4cc(C(C)(C)C)on4)c3)ncnc2cc1O[C@@H]1CCN(C)C1` [Ex 99, (R)-1-(5-tert-butylisoxazol-3-yl)-3-(3-(6-methoxy-7-(1-methylpyrrolidin-3-yloxy)quinazolin-4-yloxy)phenyl)urea mono acetate], for which the IC50 in experiment [1] was 250 to 500 nM. For the same compound, the Kd on RAF kinases [2] and on RAF kinases [3] was 250 to 500 nM in each case. Further, the concentration giving a half-maximal response (EC50) in the experiment with A375 cells is over 1000 nM.

For `COc1cc2ncnc(Oc3cccc(NC(=O)Nc4cc(C(C)(C)C)on4)c3)c2cc1OC[C@H](O)CN1CCN(C)CC1` [Ex 112, (R)-1-(5-tert-butylisoxazol-3-yl)-3-(3-(6-(2-hydroxy-3-(4-methylpiperazin-1-yl)propoxy)-7-methoxyquinazolin-4-yloxy)phenyl)urea], in experiment [1], the IC50 is 250 to 500 nM. For the same compound, the Kd lay in the range of 500 to 1000 nM on RAF kinases [2] and 250 to 500 nM at RAF kinases [3]. Further, in the experiment with A375 cells, the EC50 lay in the range of 500 to 1000 nM.

Regarding `COCCOc1cc2ncnc(Oc3cccc(NC(=O)Nc4cccc(C(C)(C)C)c4)c3)c2cc1OC` [Ex 119, 1-(3-tert-butylphenyl)-3-(3-(6-methoxy-7-(2-methoxyethoxy)quinazolin-4-yloxy)phenyl)urea], the half-maximal inhibitory concentration (IC50) in experiment [1] lay within 250 to 500 nM. The Kd on RAF kinases [2] and on RAF kinases [3] was 250 to 500 nM in each case. The EC50 in the experiment on A375 cells was over 1000 nM.

As to `COc1cc2ncnc(Oc3cccc(NC(=O)Nc4cc(C(F)(F)F)ncn4)c3)c2cc1OC` [Ex 146, 1-(3-(6,7-dimethoxyquinazolin-4-yloxy)phenyl)-3-(6-(trifluoromethyl)pyrimidin-4-yl)urea], the IC50 in experiment [1] was over 1000 nM. Further, the Kd at RAF kinases [2] and on RAF kinases [3] was 250 to 500 nM throughout. Also, the EC50 in the experiment on A375 cells was over 1000 nM.

Take `COc1cc2ncnc(Oc3cccc(NC(=O)Nc4cc(C(C)(F)F)no4)c3)c2cc1OC` [Ex 152, 1-(3-(1,1-difluoroethyl)isoxazol-5-yl)-3-(3-(6,7-dimethoxyquinazolin-4-yloxy)phenyl)urea]: in experiment [1], the IC50 lay within 500 to 1000 nM. The Kd at RAF kinases [2] and on RAF kinases [3] was 250 to 500 nM each time. For the same compound, the EC50 in the experiment with A375 cells was 500 to 1000 nM.

Regarding `COc1cc2ncnc(Sc3cccc(NC(=O)Nc4cc(C(C)(C)C)nn4C)c3)c2cc1OC` [Ex 157, 1-(3-tert-butyl-1-methyl-1H-pyrazol-5-yl)-3-(3-(6,7-dimethoxyquinazolin-4-ylthio)phenyl)urea], in experiment [1], the IC50 is under 250 nM. Also, the values for the Kd on RAF kinases [2] and at RAF kinases [3] were 500 to 1000 nM and 250 to 500 nM, respectively. Moreover, in the experiment on A375 cells, the EC50 is over 1000 nM.

For the compound `COc1cc2ncnc(Sc3cccc(NC(=O)Nc4cc(C(C)(CF)CF)no4)c3)c2cc1OC` [Ex 160, 1-[3-(1,3-difluoro-2-methylpropan-2-yl)isoxazol-5-yl]-3-[3-(6,7-dimethoxyquinazolin-4-ylthio)phenyl]urea], the IC50 in experiment [1] was under 250 nM. The Kd lay within 500 to 1000 nM at RAF kinases [2] and 250 to 500 nM on RAF kinases [3]. Further, the EC50 in the experiment on A375 cells was over 1000 nM.

Take `COc1cc2ncnc(Oc3cccc(NC(=O)Nc4ccc(C(C)(C)C)cc4)c3)c2cc1OC` [Ex 173, 1-(4-tert-butylphenyl)-3-(3-(6,7-dimethoxyquinazolin-4-yloxy)phenyl)urea]: the IC50 in experiment [1] was in the range of 250 to 500 nM. For the same compound, the Kd fell in the range of 500 to 1000 nM at RAF kinases [2] and 250 to 500 nM at RAF kinases [3]. Besides, the EC50 in the experiment with A375 cells was over 1000 nM.

Turning to `COc1cc2ncnc(Oc3cccc(NC(=O)Nc4ccc(Cl)c(C(F)(F)F)c4)c3)c2cc1OC` [Ex 176, 1-(4-chloro-3-(trifluoromethyl)phenyl)-3-(3-(6,7-dimethoxyquinazolin-4-yloxy)phenyl)urea], in experiment [1], the IC50 was in the range of 250 to 500 nM. Moreover, the Kd at RAF kinases [2] lay in the range of 500 to 1000 nM; on RAF kinases [3], 250 to 500 nM. In the experiment on A375 cells, the EC50 is over 1000 nM.

As for `COc1cccc(NC(=O)Nc2cccc(Oc3ncnc4cc(OC)c(OC)cc34)c2)c1` [Ex 178, 1-(3-(6,7-dimethoxyquinazolin-4-yloxy)phenyl)-3-(3-methoxyphenyl)urea], the IC50 in experiment [1] is over 1000 nM. For the same compound, the Kd on RAF kinases [2] was in the range of 500 to 1000 nM; at RAF kinases [3] it was 250 to 500 nM. In addition, the EC50 in the experiment on A375 cells was over 1000 nM.

As to `CCOc1cccc(NC(=O)Nc2cccc(Oc3ncnc4cc(OC)c(OC)cc34)c2)c1` [Ex 179, 1-(3-(6,7-dimethoxyquinazolin-4-yloxy)phenyl)-3-(3-ethoxyphenyl)urea], the IC50 in experiment [1] was over 1000 nM. Moreover, the dissociation constant (Kd) was in the range of 500 to 1000 nM on RAF kinases [2] and 250 to 500 nM at RAF kinases [3]. Moreover, in the experiment on A375 cells, the concentration giving a half-maximal response (EC50) is over 1000 nM.

As to `COCCOc1cc2ncnc(Oc3cccc(NC(=O)Nc4cc(C(C)(C)C)no4)c3)c2cc1OC` [Ex 202, 1-(3-tert-butylisoxazol-5-yl)-3-(3-(6-methoxy-7-(2-methoxyethoxy)quinazolin-4-yloxy)phenyl)urea], in experiment [1], the IC50 was under 250 nM. Moreover, the Kd at RAF kinases [2] and on RAF kinases [3] was 250 to 500 nM each time. In addition, the EC50 in the experiment with A375 cells is over 1000 nM.

Consider `COCCOc1cc2ncnc(Oc3cccc(NC(=O)Nc4cc(C5CCCC5)no4)c3)c2cc1OC` [Ex 207, 1-(3-cyclopentylisoxazol-5-yl)-3-(3-(6-methoxy-7-(2-methoxyethoxy)quinazolin-4-yloxy)phenyl)urea], for which, in experiment [1], the IC50 was over 1000 nM. The values for the Kd on RAF kinases [4], on RAF kinases [2] and on RAF kinases [3] were under 250 nM, 500 to 1000 nM and 250 to 500 nM, respectively. The EC50 with A375 cells was over 1000 nM.

Consider `COc1cc2ncnc(Oc3cccc(NC(=O)Nc4cc(C(C)(C)C)nn4-c4ccccc4F)c3)c2cc1OC` [Ex 372, 1-(3-tert-butyl-1-(2-fluorophenyl)-1H-pyrazol-5-yl)-3-(3-(6,7-dimethoxyquinazolin-4-yloxy)phenyl)urea], for which the IC50 in experiment [1] was under 250 nM. Moreover, the Kd at RAF kinases [4] was under 250 nM; at RAF kinases [2], 500 to 1000 nM; on RAF kinases [3], 500 to 1000 nM.

Turning to `CCOc1cc2ncnc(Oc3cccc(NC(=O)Nc4cc(C(C)(C)C)nn4-c4ccccc4)c3)c2cc1OC` [Ex 387, 1-(3-tert-butyl-1-phenyl-1H-pyrazol-5-yl)-3-(3-(7-ethoxy-6-methoxyquinazolin-4-yloxy)phenyl)urea], in experiment [1], the IC50 is under 250 nM. Also, the Kd at RAF kinases [4] is under 250 nM; on RAF kinases [2], 500 to 1000 nM; at RAF kinases [3], 500 to 1000 nM.

For the compound `CCOc1cc2c(Oc3cccc(NC(=O)Nc4cc(C(C)(C)C)nn4-c4ccccc4)c3)ncnc2cc1OC` [Ex 390, 1-(3-tert-butyl-1-phenyl-1H-pyrazol-5-yl)-3-(3-(6-ethoxy-7-methoxyquinazolin-4-yloxy)phenyl)urea], the IC50 in experiment [1] was under 250 nM. The results for the Kd at RAF kinases [4], at RAF kinases [2] and at RAF kinases [3] were under 250 nM, 250 to 500 nM and 500 to 1000 nM, respectively.
